ChEMBL document CHEMBL1201862, “PubChem BioAssay data set” (2004)
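Values below derive from 48-hour exposures of cells grown in 96-well plates, with endpoints linearly interpolated between the two concentrations bracketing the appropriate inhibition level. At the GI50, growth is halved.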 The source made the active and inactive calls. No stated cut-off is given here; in the data, active = GI50 up to about 1.1 µM and inactive = higher.

What was measured:
Experiment in all cases: DTP human tumour cell line panel, 48 h
A498 = test system: A498
UO-31 = test system: UO-31
HOP-92 = test system: HOP-92
U-251 = test system: U-251
HT-29 = test system: HT-29
KM-20L2 = test system: KM-20L2
HCC 2998 = test system: HCC 2998
Malme-3M = test system: Malme-3M
SK-MEL-5 = test system: SK-MEL-5
OVCAR-5 = test system: OVCAR-5
KM12 = test system: KM12
IGROV-1 = test system: IGROV-1
UACC-62 = test system: UACC-62
NCI-H522 = test system: NCI-H522
HOP-62 = test system: HOP-62
K562 = test system: K562
NCI-H23 = test system: NCI-H23
SF-539 = test system: SF-539
SNB-19 = test system: SNB-19
RPMI-8226 = test system: RPMI-8226
HL-60 = test system: HL-60
HCT-15 = test system: HCT-15
SK-MEL-28 = test system: SK-MEL-28
HOP-18 = test system: HOP-18
DLD-1 = test system: DLD-1
COLO 205 = test system: COLO 205
LOX IMVI = test system: LOX IMVI
XF498 = test system: XF498
OVCAR-8 = test system: OVCAR-8
M19-MEL = test system: M19-MEL
DMS-273 = test system: DMS-273
HCT-116 = test system: HCT-116
SF-268 = test system: SF-268
SK-OV-3 = test system: SK-OV-3
SR = test system: SR
ACHN = test system: ACHN
CAKI-1 = test system: CAKI-1
SNB-78 = test system: SNB-78
SK-MEL-2 = test system: SK-MEL-2
A549 = test system: A549
OVCAR-4 = test system: OVCAR-4
SF-295 = test system: SF-295
SN12C = test system: SN12C
786-0 = test system: 786-0
M14 = test system: M14
LXFL 529 = test system: LXFL 529
SNB-75 = test system: SNB-75
OVCAR-3 = test system: OVCAR-3
MOLT-4 = test system: MOLT-4
UACC-257 = test system: UACC-257
RXF 393 = test system: RXF 393
RXF 631 = test system: RXF 631
EKVX = test system: EKVX
CCRF-CEM = test system: CCRF-CEM
SW-620 = test system: SW-620
TK-10 = test system: TK-10
NCI-H460 = test system: NCI-H460
DMS-114 = test system: DMS-114
NCI-H226 = test system: NCI-H226

`CCCCCCCCCCCCCCCCc1c(C(=O)OC)[nH]c(=S)[nH]c1=O` was tested, and the GI50 (A498) was > 50 µM (inactive), the GI50 (UO-31) was > 50 µM (inactive) and the GI50 (HOP-92) was 12.1 µM (inactive). The GI50 (U-251) was > 50 µM (inactive), the GI50 (HT-29) was > 50 µM (inactive) and the GI50 (KM-20L2) was > 50 µM (inactive). For the same compound, the GI50 (HCC 2998) was > 50 µM (inactive), the GI50 (Malme-3M) was > 50 µM (inactive) and the GI50 (SK-MEL-5) was > 50 µM (inactive). The GI50 (OVCAR-5) was > 50 µM (inactive), the GI50 (KM12) was > 50 µM (inactive) and the GI50 (IGROV-1) was > 50 µM (inactive). The GI50 (UACC-62) was > 50 µM (inactive), the GI50 (NCI-H522) was > 50 µM (inactive) and the GI50 (HOP-62) was > 50 µM (inactive). The GI50 (K562) was > 50 µM (inactive), the GI50 (NCI-H23) was > 50 µM (inactive) and the GI50 (SF-539) was > 50 µM (inactive). For the same compound, the GI50 (SNB-19) was > 50 µM (inactive), the GI50 (RPMI-8226) was > 50 µM (inactive) and the GI50 (HL-60) was > 50 µM (inactive). For the same compound, the GI50 (HCT-15) was > 50 µM, the GI50 (SK-MEL-28) was > 50 µM (inactive) and the GI50 (HOP-18) was > 50 µM (inactive). The GI50 (DLD-1) was > 50 µM (inactive), the GI50 (COLO 205) was > 50 µM (inactive) and the GI50 (LOX IMVI) was > 50 µM (inactive). The GI50 (XF498) was > 50 µM (inactive), the GI50 (OVCAR-8) was > 50 µM (inactive) and the GI50 (M19-MEL) was > 50 µM (inactive). The GI50 (DMS-273) was > 50 µM (inactive), the GI50 (HCT-116) was > 50 µM (inactive) and the GI50 (SF-268) was > 50 µM (inactive). The GI50 (SK-OV-3) was > 50 µM (inactive), the GI50 (SR) was 0.0151 µM (active) and the GI50 (ACHN) was > 50 µM (inactive). The GI50 (CAKI-1) was > 50 µM (inactive), the GI50 (SNB-78) was > 50 µM (inactive) and the GI50 (SK-MEL-2) was > 50 µM (inactive). For the same compound, the GI50 (A549) was > 50 µM (inactive), the GI50 (OVCAR-4) was > 50 µM (inactive) and the GI50 (SF-295) was > 50 µM (inactive). For the same compound, the GI50 (SN12C) was > 50 µM (inactive), the GI50 (786-0) was > 50 µM (inactive) and the GI50 (M14) was > 50 µM (inactive). The GI50 (LXFL 529) was > 50 µM (inactive), the GI50 (SNB-75) was > 50 µM (inactive) and the GI50 (OVCAR-3) was > 50 µM (inactive). The GI50 (MOLT-4) was > 50 µM (inactive), the GI50 (UACC-257) was > 50 µM (inactive) and the GI50 (RXF 393) was > 50 µM (inactive). The GI50 (RXF 631) was > 50 µM (inactive), the GI50 (EKVX) was > 50 µM (inactive) and the GI50 (CCRF-CEM) was > 50 µM (inactive). The GI50 (SW-620) was > 50 µM (inactive), the GI50 (TK-10) was > 50 µM (inactive) and the GI50 (NCI-H460) was > 50 µM (inactive).

In the case of `C(=C\c1cc(CCc2nc3ccccc3[nH]2)n[nH]1)/c1ccccc1`, the GI50 (A498) is reported as > 100 µM (inactive), the GI50 (UO-31) is reported as > 100 µM (inactive) and the GI50 (HOP-92) is reported as > 100 µM (inactive). The GI50 (U-251) was > 100 µM (inactive), the GI50 (HT-29) was > 100 µM (inactive) and the GI50 (KM-20L2) was > 100 µM (inactive). For the same compound, the GI50 (HCC 2998) was > 100 µM (inactive), the GI50 (Malme-3M) was > 100 µM (inactive) and the GI50 (SK-MEL-5) was > 100 µM (inactive). The GI50 (OVCAR-5) was > 100 µM (inactive), the GI50 (KM12) was > 100 µM (inactive) and the GI50 (IGROV-1) was > 100 µM (inactive). The GI50 (UACC-62) was > 100 µM (inactive), the GI50 (NCI-H522) was > 100 µM (inactive) and the GI50 (HOP-62) was > 100 µM (inactive). The GI50 (K562) was > 100 µM (inactive), the GI50 (NCI-H23) was > 100 µM (inactive) and the GI50 (SF-539) was > 100 µM (inactive). The GI50 (SNB-19) was > 100 µM (inactive), the GI50 (RPMI-8226) was > 100 µM (inactive) and the GI50 (HL-60) was > 100 µM (inactive). The GI50 (HCT-15) was > 100 µM, the GI50 (SK-MEL-28) was > 100 µM (inactive) and the GI50 (HOP-18) was > 100 µM (inactive). For the same compound, the GI50 (DLD-1) was > 100 µM (inactive), the GI50 (COLO 205) was > 100 µM (inactive) and the GI50 (DMS-114) was > 100 µM (inactive). For the same compound, the GI50 (LOX IMVI) was > 100 µM (inactive), the GI50 (XF498) was > 100 µM (inactive) and the GI50 (OVCAR-8) was > 100 µM (inactive). The GI50 (M19-MEL) was > 100 µM (inactive), the GI50 (HCT-116) was > 100 µM (inactive) and the GI50 (SF-268) was > 100 µM (inactive). For the same compound, the GI50 (SK-OV-3) was > 100 µM (inactive), the GI50 (SR) was > 100 µM (inactive) and the GI50 (ACHN) was > 100 µM (inactive). For the same compound, the GI50 (CAKI-1) was > 100 µM (inactive), the GI50 (A549) was > 100 µM (inactive) and the GI50 (OVCAR-4) was > 100 µM (inactive). For the same compound, the GI50 (SF-295) was > 100 µM (inactive), the GI50 (SN12C) was > 100 µM (inactive) and the GI50 (786-0) was > 100 µM (inactive). For the same compound, the GI50 (M14) was > 100 µM (inactive), the GI50 (SNB-75) was > 100 µM (inactive) and the GI50 (OVCAR-3) was > 100 µM (inactive). The GI50 (MOLT-4) was > 100 µM (inactive), the GI50 (NCI-H226) was > 100 µM (inactive) and the GI50 (UACC-257) was > 100 µM (inactive). For the same compound, the GI50 (RXF 393) was > 100 µM (inactive), the GI50 (RXF 631) was > 100 µM (inactive) and the GI50 (EKVX) was > 100 µM (inactive). For the same compound, the GI50 (CCRF-CEM) was 89.3 µM (inactive), the GI50 (SW-620) was > 100 µM (inactive) and the GI50 (TK-10) was > 100 µM (inactive). For the same compound, the GI50 (NCI-H460) was > 100 µM (inactive).
